Converted amounts (≈) assume the structure as drawn. Read-outs that look alike come from different tables or passages of the source.
Columns and labels:
NRRL 11459 [1] = experiment: Antibiotic sensitivity of the producing strain (sensitivity discs on seeded ISP #2 agar); assay type: cell-based, Streptomyces flocculus; conditions: 30° C., 14 days; note: key: +: sensitive (zones of inhibition); -: resistat (no zones of inhibition)
Procedure: (§1) The cell wall sugars are determined using a modification of the procedure of M. Lechevalier, "Chemical Methods as Criteria for the Separation of Actinomycetes Into Genera", workshop sponsored by the subcommittee on Actionomycetes of the American Society of Microbology, Dr. Thoman G. Pridham, Convenor, held at the Institute of Microbology, Rutgurs University, New Brunswick, N.J., 1971. The isomer of diaminopimelic acid is determined using the method of B. Becker Appl. Microbiol., 11 421 ([…]). Amino acid analysis is determined with washed cell wall fragments. Melanoid pigments are determined using ISP #6 (peptone-yeast extract iron agar) and ISP #7 (tyrosine agar). Inhibitors are tested by incorporating varing concentrations of inhibitors into ISP #2 agar plates and streaking the culture on the surface. Starch hydrolysis is determined by testing for the presence of starch with iodine on ISP #4 agar plates. Temperature range, NaCl tolerance, pH range, and antibiotic sensitivity are done using ISP #2 agar medium. The range of temperatures are: 25°, 28°, 30°, 34°, 37°, 40°, 45°, 50°, 55° C. NaCl tolerance is measured by adding NaCl to the agar to equal: 0, 1, 2, 3, 4, 5, 6, 8, 10, 12% and incubating at 30° C. for 7 days. Antibiotic sensitivity is determined using sensitivity discs padded onto seeded agar plates of ISP #2 medium and incubating at 30° C. for 14 days.

NRRL 11459 [2] = experiment: Inhibitor sensitivity of the producing strain (inhibitor in ISP #2 agar); assay type: cell-based, Streptomyces flocculus
Procedure: as §1

[3] = test system: Actinomyces israelii W855; experiment: Susceptibility of anaerobic bacterial isolates, agar dilution; assay type: cell-based; conditions: 27 hours incubation
[4] = test system: Clostridium perfringens 81; experiment: microbe, parasite or virus in culture; assay type: cell-based; conditions: Clostridium perfringens, 81, 27 h
[5] = test system: Clostridium septicum 1128; experiment: Susceptibility of anaerobic bacterial isolates, agar dilution; assay type: cell-based; conditions: 27 hours incubation
[6] = test system: Eubacterium aerofaciens 1235; experiment: as above; assay type: cell-based; conditions: Collinsella aerofaciens, 27 hours incubation
[7] = test system: Peptococcus asaccharolyticus 1302; experiment: as above; assay type: cell-based; conditions: Peptoniphilus asaccharolyticus, 27 hours incubation
Peptococcus prevoti 1281 = experiment: as above; assay type: cell-based; conditions: 27 hours incubation
[8] = test system: Peptostreptococcus anaerobius 1428; experiment: as above; assay type: cell-based; conditions: 27 hours incubation
[9] = test system: Peptostreptococcus intermedium 1264; experiment: as above; assay type: cell-based; conditions: 27 hours incubation
[10] = test system: Propionibacterium acnes 79; experiment: as above; assay type: cell-based; conditions: Cutibacterium acnes, 27 hours incubation
[11] = test system: Bacteroides fragilis spp. fragilis 111; experiment: as above; assay type: cell-based; conditions: 27 hours incubation
[12] = test system: Bacteroides fragilis ssp. fragilis 1877; experiment: as above; assay type: cell-based; conditions: 27 hours incubation
[13] = test system: Bacteroides fragilis ssp. fragilis 1936B; experiment: as above; assay type: cell-based; conditions: 27 hours incubation
[14] = test system: Bacteroides fragilis ssp. thetaiotaoimicron 1438; experiment: as above; assay type: cell-based; conditions: 27 hours incubation
[15] = test system: Bacteroides melaninogenicus 1856/28; experiment: as above; assay type: cell-based; conditions: Prevotella intermedia, 27 hours incubation
[16] = test system: Bacteroides melaninogenicus 2736; experiment: as above; assay type: cell-based; conditions: 27 hours incubation
[17] = test system: Bacteroides vulgatis 1211; experiment: as above; assay type: cell-based; conditions: 27 hours incubation
[18] = test system: Bacteroides corrodens 1874; experiment: as above; assay type: cell-based; conditions: Eikenella corrodens, 27 hours incubation
[19] = test system: Fusobacterium symbiosum 1470; experiment: as above; assay type: cell-based; conditions: 27 hours incubation
[20] = test system: Fusobacterium necrophorum 6054A; experiment: as above; assay type: cell-based; conditions: 27 hours incubation
S. Aureus (3 strains) = experiment: Disc-plate test; conditions: Staphylococcus aureus, read-out: Disc-Plate Zone Sizes
S. pyogenes C203 [21] = experiment: Disc-plate test; conditions: Streptococcus pyogenes, C203, read-out: Disc-Plate Zone Sizes
Group D Streptococcus = experiment: Disc-plate test; conditions: read-out: Disc-Plate Zone Sizes
S. pneumoniae I [22] = experiment: Disc-plate test; conditions: Streptococcus pneumoniae, read-out: Disc-Plate Zone Sizes
E. coli Ec-14 = experiment: Disc-plate test; conditions: Escherichia coli, EC14, read-out: Disc-Plate Zone Sizes
P rettgeri PR-2 = experiment: Disc-plate test; conditions: read-out: Disc-Plate Zone Sizes
K. pneumoniae KL-14 = experiment: Disc-plate test; conditions: Klebsiella pneumoniae, KL14, read-out: Disc-Plate Zone Sizes
S. typhosa SA-12 = experiment: Disc-plate test; conditions: read-out: Disc-Plate Zone Sizes
S. aureus 3.55 = experiment: Agar-dilution test; conditions: Staphylococcus aureus
S. aureus 3074 = experiment: Agar-dilution test; conditions: Staphylococcus aureus
S. faecalis X-66 = experiment: Agar-dilution test; conditions: Enterococcus faecalis, X66
S. aureus 3055 = experiment: Therapy in experimental mouse infections; conditions: Staphylococcus aureus, 3055, in Mus musculus
S. pyogenes C203 [23] = experiment: Therapy in experimental mouse infections; conditions: Streptococcus pyogenes
S. pneumoniae I [24] = experiment: Therapy in experimental mouse infections; conditions: Streptococcus pneumoniae
gram positive bacteria = experiment: Antibacterial activity in standard test procedures

For `[H]/N=C(/N)N[C@H]1[C@H](O)[C@@H](O)[C@H](O[C@@H]2O[C@@H](C)[C@](O)(C=O)[C@H]2O[C@@H]2O[C@@H](CO)[C@H](O)[C@@H](O)[C@@H]2NC)[C@@H](N/C(N)=N\[H])[C@@H]1O` [Streptomycin], the Antibiotic sensitivity (NRRL 11459 [1]; 10 μg/disc) was “+”.

`CC[C@H]1OC(=O)[C@H](C)[C@@H](O[C@H]2C[C@@](C)(OC)[C@@H](O)[C@H](C)O2)[C@H](C)[C@@H](O[C@@H]2O[C@H](C)C[C@H](N(C)C)[C@H]2O)[C@](C)(O)C[C@@H](C)C(=O)[C@H](C)[C@@H](O)[C@]1(C)O` [Erythromycin] was tested, and the Antibiotic sensitivity (NRRL 11459 [1]; 15 μg/disc) was “+”.

With `O=C([O-])CC(O)(CC(=O)[O-])C(=O)[O-].[Bi+3]` [Bismuth Citrate] the “Inhibitor sensitivity, MIC” value (NRRL 11459 [2]; NRRL 11459, ISP #2 agar plates) was over 500 µg/mL.

For `O.O.O.O=C([O-])[C@H]([O-])[C@@H]([O-])C(=O)[O-].O=C([O-])[C@H]([O-])[C@@H]([O-])C(=O)[O-].[K+].[K+].[Sb+3].[Sb+3]` [Antimony Potassium tartrate], the “Inhibitor sensitivity, MIC” value (NRRL 11459 [2]; NRRL 11459, ISP #2 agar plates) was 250 µg/mL.

`CCC1OC(=O)CC(O)C(C)C(OC2OC(C)C(OC3CCC(O)C(C)O3)C(N(C)C)C2O)C(CCO)CC(C)C(=O)C=CC2(C)OC2C1C` (stereo not drawn) showed an MIC [3] of 8 µg/mL (≈ 11.2 µM), an MIC [4] of 16 µg/mL (≈ 22.4 µM) and an MIC [5] of 16 µg/mL (≈ 22.4 µM). The MIC [6] was 8 µg/mL (≈ 11.2 µM), the MIC [7] was 8 µg/mL (≈ 11.2 µM) and the MIC (Peptococcus prevoti 1281) was over 64 µg/mL. For the same molecule, the MIC [8] was 16 µg/mL (≈ 22.4 µM), the MIC [9] was 8 µg/mL (≈ 11.2 µM) and the MIC [10] was 1 µg/mL (≈ 1.4 µM). It also gave an MIC [11] of 64 µg/mL (≈ 89.6 µM), an MIC [12] of 64 µg/mL (≈ 89.6 µM) and an MIC [13] of 64 µg/mL (≈ 89.6 µM). For the same molecule, the MIC [14] was 16 µg/mL (≈ 22.4 µM), the MIC [15] was 64 µg/mL (≈ 89.6 µM) and the MIC [16] was 64 µg/mL (≈ 89.6 µM). The MIC [17] was 32 µg/mL (≈ 44.8 µM), the MIC [18] was 32 µg/mL (≈ 44.8 µM) and the MIC [19] was 128 µg/mL (≈ 179 µM). It also gave an MIC [20] of 128 µg/mL (≈ 179 µM), a zone of inhibition at 300 µg/disc (S. Aureus (3 strains)) of 27 mm and a zone of inhibition at 300 µg/disc (S. pyogenes C203 [21]) of 24.2 mm. For the same molecule, the zone of inhibition at 300 µg/disc (Group D Streptococcus) was 22.5 mm, the zone of inhibition at 300 µg/disc (S. pneumoniae I [22]) was 36 mm and the zone of inhibition at 300 µg/disc (E. coli Ec-14) was 14 mm. It also gave a zone of inhibition at 300 µg/disc (P rettgeri PR-2) of 8.6 mm, a zone of inhibition at 300 µg/disc (K. pneumoniae KL-14) of 11.3 mm and a zone of inhibition at 300 µg/disc (S. typhosa SA-12) of 8.8 mm. It also gave an MIC (S. aureus 3.55) of 32 µg/mL (≈ 44.8 µM), an MIC (S. aureus 3074) of over 128 µg/mL and an MIC (S. faecalis X-66) of 16 µg/mL (≈ 22.4 µM). It also gave an ED50 (S. aureus 3055) of over 70 mg/kg, an ED50 (S. pyogenes C203 [23]) of over 70 mg/kg and an ED50 (S. pneumoniae I [24]) of over 70 mg/kg. The antibacterial activity (gram positive bacteria) was “exhibit antibacterial activity, particularly against gram positive bacteria”.

For `CC(=O)[O-].[Tl+]` [Thallium Acetate], the “Inhibitor sensitivity, MIC” value (NRRL 11459 [2]) was under 10 µg/mL.

With Polymixin B the Antibiotic sensitivity (NRRL 11459 [1]; 300 units/disc) was “+”.

`O=[Se](O)O` [Sodium Selenite] showed an MIC (NRRL 11459 [2]; NRRL11459, NRRL 11459, ISP #2 agar plates, read-out: Inhibitor sensitivity, MIC) of 25 µg/mL.

Molecule `[N-]=[N+]=[N-]` [Sodium Azide] has an MIC (NRRL 11459 [2]; NRRL11459, read-out: Inhibitor sensitivity, MIC) of 10 µg/mL.

From patent US4252898A
